Consider five molecules from the supplement of paper PMC10307832.

The subject of the first assay is NCI-H3122. Briefly: relative viability (nuclei count vs DMSO), 5 days (fraction); higher = more cells survive. As to conditions: first compound 2.53 µM. In outline: (§1)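 Relative viability was taken as the ratio of nuclei in treated wells to nuclei in vehicle wells. Lung cancer cell lines in 1536-well plates received compounds by pin tool one day after seeding, either one drug alone or a fixed anchor-drug dose plus five library-drug doses (not always all listed) in √10 steps. Nuclei were counted on 4× images after 5 days of treatment, and values are medians of duplicate plates.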
`CCCCCCCCCCCC1=C(O)C(=O)C=C(O)C1=O` [Embelin] + CC(C)C[C@H](NC(=O)[C@H](Cc1ccccc1)NC(=O)c1cnccn1)B(O)O [Bortezomib] (partner 0.002 µM) had a relative viability of 0.916.

`CCCCCCCCCCCC1=C(O)C(=O)C=C(O)C1=O` [Embelin] + CS(=O)(=O)CCNCc1ccc(-c2ccc3ncnc(Nc4ccc(OCc5cccc(F)c5)c(Cl)c4)c3c2)o1 [Lapatinib] (partner 2 µM) gave a relative viability of 0.956.

For the molecule `CCCCCCCCCCCC1=C(O)C(=O)C=C(O)C1=O` [Embelin] + C[C@@H](Oc1cc(-c2cnn(C3CCNCC3)c2)cnc1N)c1c(Cl)ccc(F)c1Cl [Crizotinib] (partner 1 µM), the relative viability stood at 0.273.

The same assay, now with this note: first compound 8 µM.
As to `CCCCCCCCCCCC1=C(O)C(=O)C=C(O)C1=O` [Embelin] + O=C(CCCCCCC(=O)Nc1ccccc1)NO [Vorinostat] (partner 1 µM), the relative viability was determined as 0.915.

With `CCCCCCCCCCCC1=C(O)C(=O)C=C(O)C1=O` [Embelin] + C[C@]1(O)C[C@@H](c2nc(-c3ccc4ccc(-c5ccccc5)nc4c3)c3c(N)nccn32)C1 [Linsitinib] (partner 1 µM), the relative viability is 1.12.

`CCCCCCCCCCCC1=C(O)C(=O)C=C(O)C1=O` [Embelin] + CC(C)C[C@H](NC(=O)[C@H](Cc1ccccc1)NC(=O)c1cnccn1)B(O)O [Bortezomib] (partner 0.002 µM) showed a relative viability of 0.992.

`CCCCCCCCCCCC1=C(O)C(=O)C=C(O)C1=O` [Embelin] + CS(=O)(=O)CCNCc1ccc(-c2ccc3ncnc(Nc4ccc(OCc5cccc(F)c5)c(Cl)c4)c3c2)o1 [Lapatinib] (partner 2 µM): the relative viability amounted to 1.09.

In turn, `CCCCCCCCCCCC1=C(O)C(=O)C=C(O)C1=O` [Embelin] + C[C@@H](Oc1cc(-c2cnn(C3CCNCC3)c2)cnc1N)c1c(Cl)ccc(F)c1Cl [Crizotinib] (partner 1 µM) yielded a relative viability of 0.282.

A further assay concerns NCI-H358. Described as above. The settings on record: first compound 0.08 µM. In outline:
as §1
`CCCCCCCCCCCC1=C(O)C(=O)C=C(O)C1=O` [Embelin] + O=C(CCCCCCC(=O)Nc1ccccc1)NO [Vorinostat] (partner 1 µM) yielded a relative viability of 0.699.

Take `CCCCCCCCCCCC1=C(O)C(=O)C=C(O)C1=O` [Embelin] + C[C@]1(O)C[C@@H](c2nc(-c3ccc4ccc(-c5ccccc5)nc4c3)c3c(N)nccn32)C1 [Linsitinib] (partner 1 µM): the relative viability was found to be 0.691.

For `CCCCCCCCCCCC1=C(O)C(=O)C=C(O)C1=O` [Embelin] + CS(=O)(=O)CCNCc1ccc(-c2ccc3ncnc(Nc4ccc(OCc5cccc(F)c5)c(Cl)c4)c3c2)o1 [Lapatinib] (partner 2 µM), the relative viability is 0.452.

On to `CCCCCCCCCCCC1=C(O)C(=O)C=C(O)C1=O` [Embelin] + C[C@@H](Oc1cc(-c2cnn(C3CCNCC3)c2)cnc1N)c1c(Cl)ccc(F)c1Cl [Crizotinib] (partner 1 µM), for which the relative viability was found to be 0.635.

The same assay, now with this note: first compound 0.8 µM.
For the molecule `CCCCCCCCCCCC1=C(O)C(=O)C=C(O)C1=O` [Embelin] + O=C(CCCCCCC(=O)Nc1ccccc1)NO [Vorinostat] (partner 1 µM), the relative viability worked out at 0.876.

Regarding `CCCCCCCCCCCC1=C(O)C(=O)C=C(O)C1=O` [Embelin] + C[C@]1(O)C[C@@H](c2nc(-c3ccc4ccc(-c5ccccc5)nc4c3)c3c(N)nccn32)C1 [Linsitinib] (partner 1 µM), the relative viability is 0.908.

The molecule `CCCCCCCCCCCC1=C(O)C(=O)C=C(O)C1=O` [Embelin] + CS(=O)(=O)CCNCc1ccc(-c2ccc3ncnc(Nc4ccc(OCc5cccc(F)c5)c(Cl)c4)c3c2)o1 [Lapatinib] (partner 2 µM) had a relative viability of 0.525.

`CCCCCCCCCCCC1=C(O)C(=O)C=C(O)C1=O` [Embelin] + C[C@@H](Oc1cc(-c2cnn(C3CCNCC3)c2)cnc1N)c1c(Cl)ccc(F)c1Cl [Crizotinib] (partner 1 µM): the relative viability was 0.851.

Staying with this assay, now noted: first compound 2.53 µM.
`CCCCCCCCCCCC1=C(O)C(=O)C=C(O)C1=O` [Embelin] + O=C(CCCCCCC(=O)Nc1ccccc1)NO [Vorinostat] (partner 1 µM) yielded a relative viability of 0.707.

In turn, `CCCCCCCCCCCC1=C(O)C(=O)C=C(O)C1=O` [Embelin] + C[C@]1(O)C[C@@H](c2nc(-c3ccc4ccc(-c5ccccc5)nc4c3)c3c(N)nccn32)C1 [Linsitinib] (partner 1 µM) gave a relative viability of 0.92.

Turning to `CCCCCCCCCCCC1=C(O)C(=O)C=C(O)C1=O` [Embelin] + CS(=O)(=O)CCNCc1ccc(-c2ccc3ncnc(Nc4ccc(OCc5cccc(F)c5)c(Cl)c4)c3c2)o1 [Lapatinib] (partner 2 µM), the relative viability stood at 0.47.

The molecule `CCCCCCCCCCCC1=C(O)C(=O)C=C(O)C1=O` [Embelin] + C[C@@H](Oc1cc(-c2cnn(C3CCNCC3)c2)cnc1N)c1c(Cl)ccc(F)c1Cl [Crizotinib] (partner 1 µM) returned a relative viability of 0.547.

Staying with this assay, now noted: first compound 8 µM.
In the case of `CCCCCCCCCCCC1=C(O)C(=O)C=C(O)C1=O` [Embelin] + O=C(CCCCCCC(=O)Nc1ccccc1)NO [Vorinostat] (partner 1 µM), the relative viability came to 0.697.

Molecule `CCCCCCCCCCCC1=C(O)C(=O)C=C(O)C1=O` [Embelin] + C[C@]1(O)C[C@@H](c2nc(-c3ccc4ccc(-c5ccccc5)nc4c3)c3c(N)nccn32)C1 [Linsitinib] (partner 1 µM) had a relative viability of 0.842.

On to `CCCCCCCCCCCC1=C(O)C(=O)C=C(O)C1=O` [Embelin] + CS(=O)(=O)CCNCc1ccc(-c2ccc3ncnc(Nc4ccc(OCc5cccc(F)c5)c(Cl)c4)c3c2)o1 [Lapatinib] (partner 2 µM), for which the relative viability came out at 0.384.

`CCCCCCCCCCCC1=C(O)C(=O)C=C(O)C1=O` [Embelin] + C[C@@H](Oc1cc(-c2cnn(C3CCNCC3)c2)cnc1N)c1c(Cl)ccc(F)c1Cl [Crizotinib] (partner 1 µM): the relative viability was found to be 0.791.

For a further assay, the system named is COR-L23. The assay is described as above. As to conditions: first compound 0.08 µM. In outline: as §1
`CCCCCCCCCCCC1=C(O)C(=O)C=C(O)C1=O` [Embelin] + O=C(CCCCCCC(=O)Nc1ccccc1)NO [Vorinostat] (partner 1 µM) had a relative viability of 0.404.

As for `CCCCCCCCCCCC1=C(O)C(=O)C=C(O)C1=O` [Embelin] + C[C@]1(O)C[C@@H](c2nc(-c3ccc4ccc(-c5ccccc5)nc4c3)c3c(N)nccn32)C1 [Linsitinib] (partner 1 µM), the relative viability was determined as 0.896.

Turning to `CCCCCCCCCCCC1=C(O)C(=O)C=C(O)C1=O` [Embelin] + CC(C)C[C@H](NC(=O)[C@H](Cc1ccccc1)NC(=O)c1cnccn1)B(O)O [Bortezomib] (partner 0.002 µM), the relative viability is 1.

`CCCCCCCCCCCC1=C(O)C(=O)C=C(O)C1=O` [Embelin] + CS(=O)(=O)CCNCc1ccc(-c2ccc3ncnc(Nc4ccc(OCc5cccc(F)c5)c(Cl)c4)c3c2)o1 [Lapatinib] (partner 2 µM) registered a relative viability of 0.927.

In turn, `CCCCCCCCCCCC1=C(O)C(=O)C=C(O)C1=O` [Embelin] + C[C@@H](Oc1cc(-c2cnn(C3CCNCC3)c2)cnc1N)c1c(Cl)ccc(F)c1Cl [Crizotinib] (partner 1 µM) came in with a relative viability of 0.691.
